Among the data in ChEMBL document CHEMBL1145168, “Farnesoid X receptor: from structure to potential clinical applications” (J Med Chem, 2005) are EC50, Fold activation and IC50 values, retold here.

Molecules are shown by their SMILES.

Assay [1] deals with T1, Bile acid receptor (Homo sapiens, UniProt Q96RI1).
T1 sequence (Q96RI1 whole entry): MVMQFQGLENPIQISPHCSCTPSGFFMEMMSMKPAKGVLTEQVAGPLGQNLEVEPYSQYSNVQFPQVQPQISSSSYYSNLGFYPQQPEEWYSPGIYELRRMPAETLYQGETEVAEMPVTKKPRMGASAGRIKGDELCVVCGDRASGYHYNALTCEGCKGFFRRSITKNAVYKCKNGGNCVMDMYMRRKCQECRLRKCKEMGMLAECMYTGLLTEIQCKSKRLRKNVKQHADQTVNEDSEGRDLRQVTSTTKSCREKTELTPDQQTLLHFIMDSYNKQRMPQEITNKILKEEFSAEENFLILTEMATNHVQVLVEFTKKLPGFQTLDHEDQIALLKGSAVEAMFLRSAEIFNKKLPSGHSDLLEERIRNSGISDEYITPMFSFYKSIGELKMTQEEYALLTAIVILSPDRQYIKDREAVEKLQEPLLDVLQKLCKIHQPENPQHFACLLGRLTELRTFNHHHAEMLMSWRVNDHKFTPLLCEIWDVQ
Nature of the assay: Activation of human farnesoid X receptor in FRET assay.

The species entered for assay [2] is Homo sapiens. The assay is described as follows: Activation of human Farnesoid X receptor/Retinoic X receptor at 5 uM.
Assay [3] in a line: Inhibition of human Farnesoid X receptor/Retinoid X receptor heterodimer; Antagonistic activity. The assay is classed as functional.

In turn, `O=C(O)/C=C/c1cccc(N(Cc2ccc(-c3ccc4c(c3)OCO4)cc2)C(=O)C2CCCCC2)c1` gave an EC50 in assay [1] of 222 nM.

As to `O=C(O)/C=C/c1cccc(N(Cc2ccc(/C=C/c3ccccc3)cc2)C(=O)C2CCCCC2)c1`, the EC50 in assay [1] was found to be 255 nM.

With `CCCC/C(=C\c1ccc(C(=O)O)cc1)c1ccc2c(c1)C(C)(C)CCC2(C)C`, the Fold activation in assay [2] came to 85.

As to `CC1(C)CCC(C)(C)c2cc(C(Cc3ccc(C(=O)O)cc3)[Si](C)(C)C)ccc21` (stereo unspecified), the Fold activation in assay [2] is 91.

Consider `CCCCCCOc1c(\C(C)=C/C=C/C(C)=C/C(=O)O)cc(C(C)C)cc1C(C)C`, for which, in assay [3], the IC50 is below 10 nM.

Regarding `CN(C)c1ccc(-c2ccc(CN(C(=O)C3CCCCC3)c3cccc(/C=C/C(=O)O)c3)cc2)cc1`, in assay [1], the EC50 was 255 nM.

As a reminder, the EC50 is the concentration giving half of the maximal effect. Higher therefore signals weaker potency. A word on the IC50: it is the point on the concentration scale where inhibition reaches its midpoint. High values mean lower potency, low ones higher potency.
